Biological target: T1, CD4-gp120 complex (Human immunodeficiency virus type 1 group M subtype B, UniProt P04578)
T1 construct: recombinant gp120 (5 μg, Sigma-Aldrich); purchased Sigma-Aldrich (gp120); R&D Systems (CD4)
Experiment: Immunoprecipitation / Western blot of CD4-gp120 complex formation
Type: binding, HIV
Details: increasing concentration, Polyol:CD4-gp120 1:1000, 1:100, 1:10; polyol alone
Procedure: Immunoprecipitation studies conducted in the presence or absence of the linseed oil-derived polyol were performed to evaluate the impact of the polyol on the formation of the CD4-gp120 complex. A commercially available immunoprecipitation kit consisting of protein G-coated agarose beads (Invitrogen) was used, and immunoprecipitations were conducted according to the manufacturer's protocol. Briefly, the gp120 antibody (5 μg, Sigma-Aldrich) was bound to the protein G-coated agarose beads (50 μl) by placing the antibody and protein G agarose beads in 1.5 ml Eppendorf centrifuge tubes and incubated at room temperature for 10 minutes with rotation. The tubes were placed on the magnet (Life Technologies) and the supernatant was removed. […] The samples were heated for 5 minutes at 95° C., then placed on the magnet, the supernatants were collected and analyzed via western blot. […]
A standard western blot technique was used to evaluate the impact of the polyol on CD4-gp120 complex formation. […] Protein bands on the membrane were detected by chemiluminescence (Femto, ThermoFisher) and imaged on X-ray film (ThermoFisher). The blotted protein was quantified using the Image J software to measure the density, and the values were normalized to an untreated sample.
The inhibitory effect of the linseed oil-derived polyol on the formation of CD4 and […] complex was evaluated with immunoprecipitation (IP). […]

## CCC(O)C(O)CC(O)C(O)CC=CCCCCCCCC(=O)OC (stereo not shown) [linseed oil-derived polyol]
  effect on CD4-gp120 complex formation (gp120 bands): reduced the CD4-gp120 complex formation

— US12440467B2, “Treatment and prevention of infections using vegetable oil-derived polyols” (priority 2021, dated 2025)
